Experimental data from paper PMC8398472, “Anticancer Diiron Vinyliminium Complexes: A Structure–Activity Relationship Study” (Pharmaceutics, 2021).
Where “and” joins values, the source holds several entries; their conditions need not be identical. Identical values can stand only once. Like-named read-outs stand apart in the source and are kept apart here.

Key:
[1] = cited from earlier work; for Log Pow: previously determined
[2] = test system: human ovarian carcinoma cisplatin-sensitive A2780; parameters: method as in PMID 31441186; details: previously determined on the same cell line; cited from earlier work
[3] = test system: mouse embryo fibroblasts Balb/3T3 clone A31; test: Cytotoxicity, WST-1 cell viability assay, Balb/3T3 clone A31; type: cell-based; details: 72 h exposure
Description: (§1) In vitro cytotoxicity investigations were carried out by using human ovarian carcinoma cisplatin-sensitive A2780 (ECACC93112519), human ovarian carcinoma cisplatin-resistant A2780cisR (ECACC 93112517) and mouse embryo fibroblasts Balb/3T3 clone A31 (ATCC CCL-163) cell lines. A2780 and A2780cisR were purchased from the European Collection of Authenticated Cell Cultures (ECACC), and Balb/3T3 clone A31 cell line from the American Type Culture Collection (ATCC).
(§2) A2780 and A2780cisR cells were routinely cultured in RPMI 1640 (Merck) containing 2 mM of L-glutamine (Merck), 1% of penicillin/streptomycin solution (Merck—10 000 U mL^−1: 10 mg mL^−1), 10% of fetal bovine serum (Merck—FBS) and antimycotic (InvivoGen, USA), and Balb/3T3 clone A31 in Dulbecco’s modified Eagle medium (Merck—DMEM) supplemented with 4 mM of L-glutamine, 1% of penicillin/streptomycin solution, 10% of calf serum (Merck) and antimycotic. […] The cultures were maintained at 37 °C and in a 5% CO2-enriched atmosphere.
(§3) A2780, A2780cisR and Balb/3T3 clone A31 cells were seeded in 96-well tissue culture polystyrene plates at a concentration of 3 × 10^3, 6 × 10^3 and 1 × 10^3 cells per well, respectively. After overnight incubation, the cells were treated with different concentrations (0–100 µM) of the selected compounds for 72 h at 37 °C in a 5% atmosphere of CO2. Stock solutions of compounds were prepared in DMSO and sequentially diluted in medium (final DMSO concentration of 0.5%). […] At the end of the incubation time, cell viability was assessed by means of WST-1 tetrazolium salt reagent (Roche). Briefly, cells were incubated for 4 h with the tetrazolium salt reagent diluted 1:10, at 37 °C and 5% CO2. Measurements of formazan dye absorbance, which directly correlates with the number of viable cells, were carried out with a micro-plate reader (Biorad) at 450 nm, using 655 nm as reference wavelength. The 50% inhibitory concentration (IC50) refers to compound concentration at which 50% of cell death is observed with respect to the control. For each tested compound, assay was performed on triplicate. The concentration effect curves were generated by nonlinear regression curves (GraphPad Prism Software, 2021) and the data reported as mean ± standard deviation.

[4] = test system: human ovarian carcinoma cisplatin-resistant A2780cisR; test: Cytotoxicity, WST-1 cell viability assay, A2780cisR; type: cell-based; details: 72 h exposure
Description: as §1, §2, §3

[5] = test system: human ovarian carcinoma cisplatin-sensitive A2780; test: Cytotoxicity, WST-1 cell viability assay, A2780; type: cell-based; details: for IC50: 72 h exposure; for Selectivity index (S.I.): ratio between IC50 for Balb/3T3 and IC50 for A2780
Description: as §1, §2, §3

[6] = Octanol–water partition coefficient (shake-flask, UV–Vis); type: physicochemical; details: 21 °C
Description: • (c) Octanol–water partition coefficients (Log Pow). Partition coefficients (Pow; IUPAC: KD partition constant), defined as Pow = corg/caq, where corg and caq are molar concentrations of the selected compound in the organic and aqueous phase, respectively, were determined by the shake-flask method and UV–Vis measurements. Deionized water and 1-octanol were vigorously stirred for 24 h to enable saturation of both phases, then separated by centrifugation. A stock solution of the selected diiron compound (ca. 2 mg; 2a–c, 3b, 4a–c, 5a, 5c, 6b,c, 7) was prepared by first adding acetone (50 μL, to help solubilization), followed by water-saturated octanol (2.5 mL). The solution was diluted with water-saturated octanol (ca. 1:3 v/v ratio, cFe2 ≈ 10^−4 M, so that 1.5 ≤ A ≤ 2.0 at λmax) and the UV–Vis spectrum was recorded (A^0org). An aliquot of the solution (Vorg = 1.2 mL) was transferred into a test tube and octanol-saturated water (Vorg = Vaq = 1.2 mL) was added. The mixture was vigorously stirred for 15 min at 21 °C and then centrifuged (5000 rpm, 10 min). The UV–Vis spectrum of the organic phase was recorded (A^forg) and the partition coefficient was calculated as Pow = A^forg/(A^0org − A^forg), where A^0org and A^forg are the absorbance in the organic phase before and after partition with the aqueous phase, respectively. An inverse procedure was followed for 3a, 3c, 5b and 6a, starting from a solution of the compound in octanol-saturated water. The partition coefficient was calculated as Pow = (A^0aq − A^faq)/A^faq where A^0aq and A^faq are the absorbance in the aqueous phase before and after partition with the organic phase, respectively. The wavelength of the maximum absorption of each compound (ca. 300 nm) was used for UV–Vis quantitation. The procedure was repeated three times for each sample (from the same stock solution); results are given as mean ± standard deviation.

[7] = Solubility in D2O by 1H NMR (Me2SO2 internal standard); type: physicochemical; details: for Solubility: 21 °C
Description: (§4) • (a) Solubility in D2O. A suspension of the selected diiron compound (3–5 mg) in a D2O solution (ca. 1 mL) containing Me2SO2 (3.36 × 10^−3 M) as internal standard was vigorously stirred at 21 °C for 1.5 h. The resulting saturated solution was filtered over celite, transferred into an NMR tube and then analyzed by ^1H NMR spectroscopy (delay time = 3 s; number of scans = 20). The concentration (solubility) was calculated by the relative integral (related to Cp and/or NMe signals) with respect to Me2SO2 (δ = 3.14 ppm). • (b) Stability in DMSO-d6/D2O solution. The selected diiron compound (ca. 4 mg) was added of 1 mL of D2O (3a,c) or DMSO-d6/D2O (2:1 v/v) mixture (2a,c, 3b, 4a–c, 5a–c, 6a–c, 7), containing Me2SO2 (3.36 × 10^−3 M). The resulting mixture was stirred for 30 min and then filtered over celite; the filtrated solution was transferred into an NMR tube. The sample was analyzed by ^1H NMR (time = 0) and then heated at 37 °C for 72 h. After cooling to room temperature, the solution was separated from a small amount of solid by filtration over celite, and the new ^1H NMR spectrum was recorded (delay time = 3 s; number of scans = 20). In every case, no newly formed organometallic species was detected. The amount of starting material in solution (% with respect to the initial spectrum) was calculated by the relative integral (vs. Cp and/or NMe signals) with respect to Me2SO2 as internal standard.

[8] = Stability in DMSO-d6/D2O or D2O solution at 37 °C for 72 h (1H NMR); type: physicochemical; details: 72 h at 37 °C
Description: as §4

| Compound | Log Pow [6] | Solubility [7] | Stability % (residual % of starting material) ([8]; DMSO-d6/D2O (2:1 v/v)) [%] | IC50 [3] [µM] | IC50 [5] | Selectivity index (S.I.) [5] | other results |
| --- | --- | --- | --- | --- | --- | --- | --- |
| O=C1C=CC(=O)c2ccccc21 [Naphthoquinone] | – | – | – | – | – | – | Log P ([1]; literature value): 1.71 |
| CC1=[C](C)[Fe+]2(=[C]=O)[C](=O)[Fe+]2[C]1=[N+](C)c1c(C)cccc1C.O=S(=O)([O-])C(F)(F)F.c1cc[cH-]c1.c1cc[cH-]c1 (stereo not shown) [[Fe2Cp2(CO)(μ-CO){μ-η^1:η^3-C^3(Me)C^2(Me)C^1NMe(Xyl)}]CF3SO3] | – | – | – | – | – | – | Log Pow [1]: 0.0; IC50 [2]: 0.5 ± 0.06 µM |
| Cc1cccc(C)c1[N+](C)=[C]1C=[C](c2ccccc2)[Fe+]2(=[C]=O)[C](=O)[Fe+]12.O=S(=O)([O-])C(F)(F)F.c1cc[cH-]c1.c1cc[cH-]c1 (stereo not shown) [[Fe2Cp2(CO)(μ-CO){μ-η^1:η^3-C^3(Ph)C^2HC^1NMe(Xyl)}]CF3SO3] | – | – | – | – | – | – | Log Pow [1]: 0.4; IC50 [2]: 0.9 ± 0.06 µM |
| N.N.[Cl][Pt][Cl] [cisplatin, reference compound] | – | – | – | 0.8 ± 0.2 | 0.4 ± 0.07 µM | – | IC50 [4]: 26 ± 3 µM |
| [Fe2Cp2(CO)(μ-CO){μ-η^1:η^3-C^3(Me)C^2HC^1NMe2}]CF3SO3 | – | – | – | – | – | – | Log Pow [1]: −0.3; IC50 [2]: 35 ± 3 µM |

Continued, in another order:

| Log Pow [6] | Solubility [7] | Stability % (residual % of starting material) ([8]; DMSO-d6/D2O (2:1 v/v)) [%] | Compound | IC50 [3] [µM] | IC50 [5] | Selectivity index (S.I.) [5] | other results |
| --- | --- | --- | --- | --- | --- | --- | --- |
| 0.13 ± 0.01 | 1.10 × 10^−3 mol·L^−1 and 0.73 g·L^−1 | 84 | [Fe2Cp2(CO)(μ-CO){μ-η^1:η^3-C^3(Et)C^2(Et)C^1NMe(CH2Ph)}]CF3SO3 [Compound 5c] | 90 ± 8 | 3.75 ± 0.14 µM | 24 | – |
| −0.77 ± 0.01 | 6.89 × 10^−3 mol·L^−1 and 4.02 g·L^−1 | – | [Fe2Cp2(CO)(μ-CO){μ-η^1:η^3-C^3(Me)C^2(Me)C^1NMe(CH2CH = CH2)}]CF3SO3 [Compound 3c] | > 100 | ~17 µM and 17 µM | >5.9 | Stability % (residual % of starting material) ([8]; neat D2O): 85 ^a % |
| 0.45 ± 0.04 | – | 81 | [Fe2Cp2(CO)(μ-CO){μ-η^1:η^3-C^3(Me)C^2HC^1N(CH2Ph)2}]CF3SO3 [Compound 2a] | 14 ± 4 | 2 ± 0.7 µM | 7 | – |
| −0.46 ± 0.01 | 2.22 × 10^−3 mol·L^−1 and 1.41 g·L^−1 | 94 | [Fe2Cp2(CO)(μ-CO){μ-η^1:η^3-C^3(Me)C^2HC^1NMe(4-C6H4OMe)}]CF3SO3 [Compound 6a] | 94 ± 4 | 3.5 ± 0.5 µM | 27 | – |
| −0.75 ± 0.01 | 6.43 × 10^−3 mol·L^−1 and 3.66 g·L^−1 | – | [Fe2Cp2(CO)(μ-CO){μ-η^1:η^3-C^3(Me)C^2HC^1NMe(CH2CH = CH2)}]CF3SO3 [Compound 3a] | > 100 | 17.7 ± 0.8 µM | >5.6 | Stability % (residual % of starting material) ([8]; neat D2O): 93 ^a % |
| −0.26 ± 0.01 | – | 85 | [Fe2Cp2(CO)(μ-CO){μ-η^1:η^3-C^3(Me)C^2HC^1NMe(CH2Ph)}]CF3SO3 [Compound 5a] | > 100 | 7.1 ± 0.4 µM | >14 | – |
| 1.4 and 1.4 ± 0.2 | – | – | [Fe2Cp2(CO)(μ-CO){μ-η^1:η^3-C^3(Ph)C^2HC^1N(CH2Ph)2}]CF3SO3 [Compound 2b] | – | – | – | Solubility in D2O (in words) [7]: almost insoluble in D2O |
| 0.41 ± 0.02 | 1.52 × 10^−3 mol·L^−1 and 1.02 g·L^−1 | 65 | [Fe2Cp2(CO)(μ-CO){μ-η^1:η^3-C^3(Ph)C^2HC^1NMe(Cy)}]CF3SO3 [Compound 4b] | 35 ± 3 | 2.6 ± 0.3 µM | 13 | – |
